In US6545019B2, “Method of modulating microglial activation for the treatment of acute and chronic neurodegenerative disorders” (Bristol-Myers Squibb Company, priority 2000, dated 2003):
“Also recorded” adds a separate entry of the source.

How the values were obtained:
IκBα = assay: LPS mediated IκBα degradation in microglia (immunoblotting); type: cell-based, rat; conditions: 100 ng/ml LPS, 10μM ATFMK, 50μM L-655,238
Procedure: Immunoblotting was carried out as described previously (Parvathenani et al., 2000). Briefly 25μg of protein was fractionated on a 4-20% tris-glycine gel (NOVEX, Calif.) and transferred to PVDF membrane (NOVEX, Calif.). The membrane was probed with a polyclonal antibody specific for IκBα. To distinguish between the phosphorylated and non-phosphorylated forms of cPLA2, 50μg of protein was run on an 8% tris-glycine gel (Novex, Calif.) for 4.5 hours at 125V, transferred and probed with a monoclonal antibody specific for cPLA2.
Effects of cPLA2 and 5-LOX inhibitors on LPS mediated IκBα degradation. Microglia were treated with 100 ng/ml of LPS for various periods of time following which whole cell lysates were prepared and run on SDS-PAGE, transferred and probed with a IκBα antibody as mentioned in immunoblotting. (6A) 100 ng/ml LPS alone, (6B) LPS+10μM ATFMK, (6C) LPS+50μM L-655,238.

5-LOX = conditions: cited from earlier work
[1] = tested on: LPS activated rat microglia cells; assay: TNF-alpha release from LPS activated rat primary microglia (ELISA); type: cell-based; conditions: for TNF-alpha release: rat primary microglia, 100 ng/ml LPS, compound 1 hr before LPS, supernatant 24 hrs post-LPS
Procedure: (§1) Rat microglia were prepared from two day old rat pups. Pup brains were removed and the meninges were gently removed. Once sufficient amount of brains were collected, brains were minced with a blunt scissors (10 times) and transferred to a 15ml conical tube with a pasteur pipette and titurated 25 times. Dissociated cells were then centrifuged at 1000 RPM for 10 minutes (RT). The supernatant was removed and 2 mls of fresh media was added. The resultant cell suspension was titurated 10 times. Following titration the cell suspension was plated in a T175 cm^2 culture flasks at a density of 4 brains per flask in 25 mls. MEM media was used for the experiments, supplemented with 10% FBS, 100 i.u.penicillin, 100 i.u.streptomycin and L-Glutamine. Microglia were isolated on day 14 by shaking on an orbital rotation shaker. The purity of the cultures was 98-100% as determined by immunostaining with ED-40 antibody.
(§2) Endotoxin (LPS) at a concentration of a 100 ng/ml were used for activation of rat microglia cells. This concentration had previously shown to be effective in inducing TNF-alpha and Nitrite release. All assays were performed in 48 well plates (Becton Dickinson) at ˜2×10^5 cells or 0.5×10^5 per 1 ml per well in 10% MEM media. Microglia cells were pre-incubated 1 hr prior to LPS challenge with either vehicle (0.1%DMSO) or test compound in DMEM containing 10%FBS (microglia) or RPMI containing 10%FBS (THP-1 monocytes). Supernatants from LPS activated rat microglia were collected at 24 hrs post-LPS challenge.
Collected supernatants were assayed for TNF-alpha using a Pharmingen OPtEIA Rat (microglia).

[2] = tested on: LPS activated rat microglia cells; assay: Nitrite (NO) release from LPS activated rat primary microglia (Modified Griess Reagent); type: cell-based; conditions: 100 ng/ml LPS, compound 1 hr before LPS, supernatant 24 hrs post-LPS
Procedure: as §1, §2
Nitrite assay was performed in a 96 well plate using a Modified Griess Reagent (Sigma). In brief, a 100 ul of Modified Griess Reagent was added to a 100 ul of collected supernatant. Samples were read at a wavelength of 540nm. All values were calculated against a NaNO2 standard curve.

NF-κB (p65) = assay: LPS mediated NF-κB (p65) nuclear translocation in microglia (indirect immunofluorescence); type: cell-based, rat; conditions: 100 ng/ml LPS, 5 min, 10μM ATFMK, 50μM L-655,238
Procedure: Cells were washed once with PBS, fixed and permeabilized with ice cold methanol (100%) for 5 minutes and washed 3× in PBS for 10 min. The cover slips were blocked for 1 hour in 10% serum/PBS (serum derived from animal in which secondary antibody was generated), incubated for 2-3 hours in primary antibody solution (1:50 dilution in 1.5% serum/PBS) and washed 3× in PBS for 10 min. Secondary antibody linked to fluorescein was applied for one hour (1:100 dilution in 1.5% serum/PBS) and washed 3× in PBS for 10 min. If the nucleus was stained, the cells were incubated for 15 minutes with DAPI (1:10000) at 37° C. and washed. The coverslips were then mounted onto glass slides using mounting media and viewed under a fluorescence microscope.
Effects of cPLA2 and 5-LOX inhibitors on LPS mediated NF-κB translocation. Microglia were treated with 100 ng/ml of LPS for various periods of time following which p65 distribution was assessed by indirect immunofluorescence (7A) control, (7B) LPS-5 min., (7C) LPS+10μM ATFMK—5 min., (7D) LPS+50μM L-655,238—5 min. (7E) LPS+NDGA-20μM—5 min.

IκBα phosphorylation = conditions: irreversible inhibitor; read-out: IC50, inhibition of IκBα phosphorylation; cited from earlier work
COX = conditions: cited from earlier work

| SMILES | TNF-alpha release [1] | nitrite (NO) release [2] | other results |
| --- | --- | --- | --- |
| CCCCCC(O)c1ccc(Cc2cnc3ccccc3c2)cc1 (stereo not drawn) [para-REV5901, α-pentyl-4-(3-quinolinylmethyl)benzenemethanol] | dose dependently inhibited TNF-alpha release and nitrite to near control levels; also recorded: significantly inhibited TNF-alpha release | dose dependently inhibited TNF-alpha release and nitrite to near control levels; also recorded: significantly inhibited nitrite release | degradation of IκBα following LPS stimulation (IκBα): attenuated the degradation of IκBα; IC50 (5-LOX): 0.1 µM; translocation of NF-κB into the nucleus (NF-κB (p65)): delayed the translocation of NF-κB into the nucleus |
| CS(=O)(=O)c1ccc(C2=C(c3ccccc3)C(=O)OC2)cc1 [rofecoxib] | failed to produce any reduction in TNF-alpha release | – | pro-inflammatory release on activated microglia [1]: no significant effect |
| CC(C)(C)c1ccc(S(=O)(=O)/C=C/C#N)cc1 [BAY 11-7085, (E)3-((4-t-Butylphenyl)sulfonyl)-2-propenenitrile] | inhibited LPS induced TNFα and NO release to control levels | inhibited LPS induced TNFα and NO release to control levels | IC50 (IκBα phosphorylation): 10 µM |
| CCCCC/C=C\C/C=C\C/C=C\C/C=C\CCCC(=O)C(F)(F)F [ATFMK, arachidonyltrifluoromethyl ketone] | significant dose-dependent inhibition; also recorded: significantly inhibited TNF-alpha release | significant dose-dependent inhibition; also recorded: significantly inhibited nitrite release | degradation of IκBα following LPS stimulation (IκBα): attenuated the degradation of IκBα; translocation of NF-κB into the nucleus (NF-κB (p65)): delayed the translocation of NF-κB into the nucleus |
| O=C(CCc1ccc(OCCS(=O)(=O)CCOC(c2ccc(Cl)cc2)c2ccc(Cl)cc2)cc1)C(F)(F)F [BMS 229724] | significant dose-dependent inhibition | significant dose-dependent inhibition | TNF-alpha release ([1]; listed as BMS-229724): significantly inhibited TNF-alpha release |
| CC(Cc1ccc(O)c(O)c1)C(C)Cc1ccc(O)c(O)c1 (centres unmarked) [NDGA, nordihdroguaiaretic acid] | dose dependently inhibited TNF-alpha release and nitrite to near control levels; also recorded: significantly inhibited TNF-alpha release | dose dependently inhibited TNF-alpha release and nitrite to near control levels | IC50 (COX): 100 µM; IC50 (5-LOX): […] |
| Cc1ccc(-c2cc(C(F)(F)F)nn2-c2ccc(S(N)(=O)=O)cc2)cc1 [celecoxib] | – | – | pro-inflammatory release on activated microglia [1]: no significant effect |
| CC(C)Cc1ccc(C(C)C(=O)O)cc1 (centres unmarked) [Ibuprofen] | failed to produce any reduction in TNF-alpha release | – | – |
